Results published in ChEMBL document CHEMBL4138093, “Discovery and characterization of selective human sphingomyelin synthase 2 inhibitors” (Eur J Med Chem, 2017).

Key:
[1] = molecular target: T1, Phosphatidylcholine:ceramide cholinephosphotransferase 1 (Homo sapiens, UniProt Q86VZ5); experiment: Inhibition of full length C-terminal FLAG tagged human SMS1 expressed in HEK293 cell membranes using DMPC-d72 and C17-ceramide as substrate preincubated for 60 mins followed by substrate addition measured after 30 mins by RapidFire/mass spectrometry assay
T1 sequence (Q86VZ5 whole entry): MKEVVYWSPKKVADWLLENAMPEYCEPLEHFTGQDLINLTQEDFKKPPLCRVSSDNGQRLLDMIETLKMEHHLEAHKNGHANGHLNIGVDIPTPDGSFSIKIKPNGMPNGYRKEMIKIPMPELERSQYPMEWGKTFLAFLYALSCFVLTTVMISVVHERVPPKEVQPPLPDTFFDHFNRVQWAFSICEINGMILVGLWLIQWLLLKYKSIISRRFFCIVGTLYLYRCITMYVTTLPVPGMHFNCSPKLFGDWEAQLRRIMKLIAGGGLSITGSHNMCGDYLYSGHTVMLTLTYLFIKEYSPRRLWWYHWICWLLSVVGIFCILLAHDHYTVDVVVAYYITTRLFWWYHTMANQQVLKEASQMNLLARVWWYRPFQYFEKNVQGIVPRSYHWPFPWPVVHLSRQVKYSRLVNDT

[2] = molecular target: T2, Phosphatidylcholine:ceramide cholinephosphotransferase 2 (Homo sapiens, UniProt Q8NHU3); experiment: Inhibition of full length C-terminal FLAG tagged human SMS2 expressed in HEK293 cell membranes using DMPC-d72 and C17-ceramide as substrate preincubated for 60 mins followed by substrate addition measured after 30 mins by RapidFire/mass spectrometry assay
T2 sequence (Q8NHU3 whole entry): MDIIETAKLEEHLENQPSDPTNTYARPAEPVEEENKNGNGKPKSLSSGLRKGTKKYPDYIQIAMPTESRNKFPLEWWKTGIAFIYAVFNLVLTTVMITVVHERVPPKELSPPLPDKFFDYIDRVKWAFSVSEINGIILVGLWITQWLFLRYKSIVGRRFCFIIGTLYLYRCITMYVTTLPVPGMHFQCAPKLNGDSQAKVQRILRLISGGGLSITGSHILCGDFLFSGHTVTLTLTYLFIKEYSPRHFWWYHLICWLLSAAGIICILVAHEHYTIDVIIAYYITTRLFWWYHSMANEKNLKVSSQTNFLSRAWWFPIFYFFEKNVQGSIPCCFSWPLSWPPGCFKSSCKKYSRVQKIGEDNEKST

Homo sapiens = species: Homo sapiens; experiment: Selectivity index, ratio of IC50 for full length C-terminal FLAG tagged human SMS1 to IC50 for full length C-terminal FLAG tagged human SMS2
HEK-293T = experiment: Cytotoxicity against HEK293T cells by CellTiter-Glo luminescent cell viability assay relative to control; type: cell-based; conditions: human
[3] = molecular target: T1, Phosphatidylcholine:ceramide cholinephosphotransferase 1; experiment: Inhibition of human SMS1

Structure (SMILES) | IC50 [1] [µM] | IC50 [2] [µM] | Ratio IC50 (Homo sapiens) | Activity (HEK-293T) [%] | IC50 [3] [µM]
S=C(S)OC1CC2CC1C1CCCC21 (stereo not given) | 86 | 56 | 1.5 |  | 
CN(Cc1cc(C(F)(F)F)cc(C(F)(F)F)c1)C(=O)c1c(N2CCCC2)c2ccccc2n(C)c1=O |  |  |  | > 50 | > 100
